Assay [1] concerns the target Beta-1 adrenergic receptor (Homo sapiens, UniProt P08588). Briefly: Binding affinity to human beta1-adrenoceptor by radioligand binding assay.
Assay [2] deals with T1, Beta-2 adrenergic receptor (Homo sapiens, UniProt P07550). Briefly: Binding affinity to human beta2-adrenoceptor by radioligand binding assay.
Target sequence in this assay (P07550 whole entry): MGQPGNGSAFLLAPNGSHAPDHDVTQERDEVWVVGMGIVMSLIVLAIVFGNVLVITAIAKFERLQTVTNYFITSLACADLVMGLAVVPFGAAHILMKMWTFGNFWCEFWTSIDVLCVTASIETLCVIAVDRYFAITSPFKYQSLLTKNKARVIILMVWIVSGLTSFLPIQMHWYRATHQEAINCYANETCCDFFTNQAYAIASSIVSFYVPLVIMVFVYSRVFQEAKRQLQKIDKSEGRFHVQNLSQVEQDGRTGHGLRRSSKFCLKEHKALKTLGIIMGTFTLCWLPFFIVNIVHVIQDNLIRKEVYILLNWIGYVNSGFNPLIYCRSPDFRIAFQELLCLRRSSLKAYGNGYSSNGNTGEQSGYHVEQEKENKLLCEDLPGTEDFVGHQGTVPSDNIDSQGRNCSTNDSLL
The species entered for a further assay is Homo sapiens. Briefly: Selectivity ratio of Ki for human beta1-adrenoceptor to Ki for human beta2-adrenoceptor.
In assay [3] the target is T2, D(2) dopamine receptor (Homo sapiens, UniProt P14416). As to the kind of experiment: Agonist activity at human dopamine D2 receptor expressed in CHO cells assessed as increase in GTPgamma35S binding by scintillation proximity assay. The class given is functional, cell-based.
T2 sequence (P14416 whole entry): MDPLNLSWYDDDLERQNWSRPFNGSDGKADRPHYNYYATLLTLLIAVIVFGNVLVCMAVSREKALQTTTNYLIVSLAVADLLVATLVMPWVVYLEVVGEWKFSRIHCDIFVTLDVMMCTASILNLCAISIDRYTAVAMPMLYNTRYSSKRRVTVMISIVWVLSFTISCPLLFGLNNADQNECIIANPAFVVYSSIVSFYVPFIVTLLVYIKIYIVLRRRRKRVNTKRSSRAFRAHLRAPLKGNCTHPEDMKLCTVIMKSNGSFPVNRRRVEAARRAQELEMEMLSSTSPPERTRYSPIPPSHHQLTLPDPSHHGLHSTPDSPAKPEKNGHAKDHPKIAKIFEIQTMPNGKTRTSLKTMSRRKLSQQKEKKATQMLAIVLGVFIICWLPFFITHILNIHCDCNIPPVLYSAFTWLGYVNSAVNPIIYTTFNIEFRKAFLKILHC
The target of assay [4] is T2, D(2) dopamine receptor. As to the kind of experiment: Intrinsic efficacy at human dopamine D2 receptor expressed in CHO cells assessed as increase in GTPgamma35S binding by scintillation proximity assay relative to dopamine. Format: functional, cell-based.
The target of assay [5] is T1, Beta-2 adrenergic receptor. Briefly: Agonist activity at beta2-adrenoceptor in human bronchial smooth-muscle cell by cAMP assay. The class given is functional. (In general: Cyclic AMP is a second messenger, typically raised through Gs and lowered through Gi signalling.)
Target sequence in this assay (P07550 whole entry): as the sequence (P07550 whole entry) above
The target of assay [6] is T1, Beta-2 adrenergic receptor. As to the kind of experiment: Kinetic binding affinity to human beta2-adrenoceptor.
Target sequence in this assay (P07550 whole entry): as above
Assay [7] has as its target T1, Beta-2 adrenergic receptor. As to the kind of experiment: Intrinsic efficacy at beta2-adrenoceptor in human bronchial smooth-muscle cell by cAMP assay. Format: functional.
Target sequence in this assay (P07550 whole entry, looked up): as the sequence (P07550 whole entry) above
Assay [8] concerns the target T1, Beta-2 adrenergic receptor. Briefly: Ratio of indacaterol Ki to compound Ki for human beta2-adrenoceptor.
Target sequence in this assay (P07550 whole entry, looked up): as the sequence (P07550 whole entry) above
The target in assay [9] is T1, Beta-2 adrenergic receptor. As to the kind of experiment: Ratio of indacaterol EC50 to compound EC50 for beta2-adrenoceptor in human bronchial smooth-muscle cell by cAMP assay. The class given is functional.
Target sequence in this assay (P07550 whole entry, looked up): as the sequence (P07550 whole entry) above
The target of assay [10] is Beta-2 adrenergic receptor (Cavia porcellus) (UniProt Q8K4Z4). Briefly: Agonist activity at beta2-adrenoceptor in guinea-pig tracheal-strip assessed as duration of action on inhibition of electrically-stimulated muscle contraction. Format: functional, tissue-based. The conditions noted are these: Trachea.
Chain of Beta-2 adrenergic receptor (Cavia porcellus) (Q8K4Z4 whole entry, looked up): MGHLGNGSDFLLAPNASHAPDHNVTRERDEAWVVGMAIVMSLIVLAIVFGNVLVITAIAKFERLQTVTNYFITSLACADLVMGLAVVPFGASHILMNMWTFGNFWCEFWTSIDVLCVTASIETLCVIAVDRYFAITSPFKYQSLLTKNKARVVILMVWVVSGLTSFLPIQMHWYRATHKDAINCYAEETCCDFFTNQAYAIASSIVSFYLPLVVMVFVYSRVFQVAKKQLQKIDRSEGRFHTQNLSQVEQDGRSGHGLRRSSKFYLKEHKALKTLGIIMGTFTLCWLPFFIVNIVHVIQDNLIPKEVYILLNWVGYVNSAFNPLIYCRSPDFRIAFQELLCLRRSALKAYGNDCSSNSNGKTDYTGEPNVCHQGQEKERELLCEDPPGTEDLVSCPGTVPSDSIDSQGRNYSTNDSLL
A further assay relates to Rhesus monkey. As to the kind of experiment: Bronchorelaxant activity in rhesus monkey assessed as inhibition of methacholine-induced bronchoconstriction. The class given is functional. The following applies: Macaca mulatta.
Assay [11] concerns the target Beta-2 adrenergic receptor (Cavia porcellus, UniProt Q8K4Z4). As to the kind of experiment: Agonist activity at beta2-adrenoceptor in guinea-pig tracheal-strip assessed as inhibition of electrically-stimulated muscle contraction. The class given is functional, tissue-based, Trachea.

Consider nine compounds from ChEMBL document CHEMBL2086302, “An investigation into the structure-activity relationships associated with the systematic modification of the β(2)-adrenoceptor agonist indacaterol” (Bioorg Med Chem Lett, 2012).

A value given as a limit tells only on which side of the number the result lay.

Chain of Beta-1 adrenergic receptor (P08588 whole entry): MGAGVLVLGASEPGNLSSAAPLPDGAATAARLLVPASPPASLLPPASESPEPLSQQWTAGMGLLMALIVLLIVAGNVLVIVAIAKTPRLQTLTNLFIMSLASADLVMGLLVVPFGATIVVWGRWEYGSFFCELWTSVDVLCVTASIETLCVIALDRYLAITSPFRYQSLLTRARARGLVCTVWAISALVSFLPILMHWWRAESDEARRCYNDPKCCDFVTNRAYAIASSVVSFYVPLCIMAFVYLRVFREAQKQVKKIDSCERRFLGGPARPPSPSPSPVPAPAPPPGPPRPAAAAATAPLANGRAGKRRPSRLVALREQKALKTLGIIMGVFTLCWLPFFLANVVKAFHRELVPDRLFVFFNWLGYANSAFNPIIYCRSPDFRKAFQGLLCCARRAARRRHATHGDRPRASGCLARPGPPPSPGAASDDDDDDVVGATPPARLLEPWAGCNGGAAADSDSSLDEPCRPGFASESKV
Chain of Beta-2 adrenergic receptor (Cavia porcellus, UniProt Q8K4Z4) (Q8K4Z4 whole entry): as the sequence (Q8K4Z4 whole entry, looked up) above

In the case of `CCCCc1ccc2c(c1)CC(NC[C@H](O)c1ccc(O)c3[nH]c(=O)ccc13)C2` (some centres undefined), the Ki worked out at 259 nM in assay [1] and 19.4 nM in [2]. For the same compound, the Ratio Ki in the assay listed under Homo sapiens was 13.4.

Turning to `CCc1cc2c(cc1CC)CC(NCC(O)c1c(C)cc(O)c3[nH]c(=O)ccc13)C2` (racemic), the results for the inhibition constant Ki in assay [1] and in assay [2] were more than 10000 nM and 515 nM, respectively. Besides, in the assay listed under Homo sapiens, the Ratio Ki was more than 19.

In the case of `CCc1cc2c(cc1CC)CC(NCC(O)c1ccc(O)c3[nH]c(=O)c(C)cc13)C2` (racemic), the inhibition constant (Ki) is 227 nM in assay [1] and 382 nM in assay [2]. Further, in the assay filed under Homo sapiens, the Ratio Ki was determined as 0.59.

Consider `O=c1[nH]c2c(O)ccc(CCNCCS(=O)(=O)CCCOCCc3ccccc3)c2s1` [SIBENADET], for which the Ki in [1] amounted to 3920 nM; in assay [2] it was 4 nM. Also, the half-maximal effective concentration (EC50) at D(2) dopamine receptor [3] was 4.5 nM. Further, the Ratio Ki in the assay filed under Homo sapiens was determined as 981. For the same compound, the Efficacy at D(2) dopamine receptor [4] worked out at 106%.

Regarding `CCc1cc2c(cc1CC)CC(C)(NC[C@H](O)c1ccc(O)c3[nH]c(=O)ccc13)C2`, the values for the inhibition constant (Ki) in assay [1] and in assay [2] were 1.9 nM and 0.6 nM, respectively. Also, the response in [5] was half-maximal at 0.28 nM (EC50). Also, in assay [6], binding was put at a Kd of 0.26 nM. In addition, the Efficacy in assay [7] worked out at 116%. The Ratio Ki in the assay filed under Homo sapiens was 3.2; in assay [8], more than 10. In addition, the Ratio EC50 in [9] was 7.3.

Consider `Cc1c(C)c(C)c2c(c1C)CC(NC[C@H](O)c1ccc(O)c3[nH]c(=O)ccc13)C2`, for which the inhibitory constant (Ki) in [1] amounted to 421 nM; in assay [2] it was 175 nM. For the same compound, the Ratio Ki in the assay filed under Homo sapiens was determined as 2.4.

For the compound `CCc1cc2c(cc1CC)CC(NC[C@H](O)c1ccc(O)c3c1CCC(=O)N3)C2`, the Ki in [1] came out at 183 nM; in [2], 45 nM. Moreover, the TIME in assay [10] was found to be 0.542 h. Further, in the assay listed under Homo sapiens, the Ratio Ki was 4.1. Moreover, in the assay on Rhesus monkey, the ED80 was 0.0532 mg/kg. Further, the IC50 in assay [11] is 3.9 nM.

Regarding `CCc1cc2c(cc1CC)CC(NCCc1ccc(O)c3[nH]c(=O)ccc13)C2`, the values for the Ki in assay [1] and in assay [2] were 478 nM and 261 nM, respectively. Also, the EC50 at D(2) dopamine receptor [3] is more than 10000 nM. Further, the TIME in assay [10] turned out to be 2.18 h. Moreover, in the assay filed under Homo sapiens, the Ratio Ki is 1.8. In [11], the concentration for half-maximal inhibition (IC50) was found to be 240 nM.

For `NC(=O)C(c1ccccc1)(c1ccccc1)[C@@H]1CCN(CCc2ccc3c(c2)CCO3)C1` [DARIFENACIN], the Efficacy in [7] is 85%. Further, the TIME in assay [10] came to 0.5 h.

One may read the Ki as a dissociation constant, usually derived from enzyme kinetics or from competition with a known ligand. The EC50 is the midpoint of the concentration-response curve. Broadly, the Kd is the constant that tells how readily two partners part at equilibrium. What is called IC50 is the midpoint of a concentration-inhibition curve.
